One data set deals with bone-marrow-derived DCs. Description: MTS viability assay, DCs (Example 2). Conditions: 24 h; 1.125 μg/mL Dox; FIG. 8B. The data set is classed as cell-based, BALB/c mice. Here is the method: To generate murine bone-marrow-derived DCs, bone marrow cells were flushed from tibias and femurs of BALB/c mice, and mononuclear cells isolated using Ficoll gradient separation (Fico/Lite-LM, Atlanta Biologicals, Flowery Branch, Ga.). Cells were cultured in medium supplemented with 20 ng/mL each GM-CSF and IL4 (PeproTech, Rocky Hill, N.J.) for 7 days. Non-adherent cells were harvested. Cells were >70% DCs as determined by CD11c staining.
(§1) The MTS assay for viability was used to determine the cytotoxic activity of Dox MPs against A20 and DCs (Promega, Madison, Wis.). Briefly, 5×10^3 A20 cells or DCs were incubated with Dox MPs (8 μg/mg) for 24, 48 or 72 h (4 wells per group) at a range of Dox concentrations. Blank MPs were used as negative controls. MTS was added for 4 h at 37° C. Following centrifugation, 90 μl of supernatant was removed. Absorbance was read at 490 nm using a Thermomax Microplate Reader (Molecular Devices, Sunnyvale, Calif.).

Data set [1] concerns A20 cells. In words: MTS viability assay, A20 (Example 2). The data set is classed as cell-based, murine. On the procedure:
as §1

Data set [2] has as its system A20 cells phagocytosed by DCs. Description: Phagocytosis assay of A20 by DCs. It is filed as cell-based, murine. The settings on record: A20 treated 48 h, co-incubated with DCs 1:1 for 2 h. Here is the method: A20 phagocytosis was quantified using A20 cells labeled with CellTrace Violet (Invitrogen, Carlsbad, Calif.). Labeled A20 were left untreated or treated with Dox MPs for 48 h (3 wells per group) at various concentrations. Controls included soluble Dox (at the same concentrations) and blank MPs (at equivalent weights). Treated A20 were washed and co-incubated with DCs at a 1:1 ratio for 2 h, stained with anti-CD11c-APC-Cy7 (BD), and analyzed by flow cytometry. The percentage of double-positive cells (CD11c and CellTrace Violet) was determined.

In data set [3] the test system is A20 cells. In words: MTS viability assay, A20 (Example 1). The settings on record: Mus musculus, 4.5 μg/mL Dox, MPs 4:1 loading, read-out: viable A20. The data set is classed as cell-based, murine. Here is the method: The A20 cell line (a BALB/c B cell lymphoma) and the EL4 cell line (a C57BL/6 T cell lymphoma) were purchased from ATCC (Manassas, Va.). Tumor cells were cultured in RPMI-1640 medium (Gibco, Carlsbad, Calif.) supplemented with 10% heat-inactivated FCS (HyClone, Logan, Utah), 100 U/mL penicillin, 100 μg/mL streptomycin, and 50 μM 2-ME (All from Gibco), as complete medium.
To determine the cytotoxic activity of MPs against A20 and EL4, the 3-(4,5 dimethylthiazol-2-yl)-5-(3-carboxymethoxyphenyl-2-(4-sulfophenyl)-2H-tetrazolium (MTS) assay for viability was conducted using CellTiter 96® AQueous Non-Radioactive Cell Proliferation Assay (Promega, Madison, Wis.). Five thousand A20 and EL4 cells were separately incubated with soluble Dox or Dox/CpG MPs (4:1 loading) in 96-well plates for 24, 48, and 72 h (four wells per group) at a final Dox concentration of 4.5 μg/mL. Media or blank MPs at equivalent weights were used as negative controls. The MTS/PMS reagent was then added for 4 h at 37° C. […] Absorbance was read at 490 nm using Thermomax Microplate Reader (Molecular Devices, Sunnyvale, Calif.). […] Viability was assessed as before.
Percent survival was expressed as the ratio of absorbance of treated cells relative to that of untreated cells in media group (after subtracting the absorbance of the blank from each) multiplied by 100. […]

For data set [4] the following is noted: lymphoma patients; 30 mg/m^2 Dox; cited from earlier work.

Where two headings read alike, the source gives them in different places.

`COc1cccc2c1C(=O)c1c(O)c3c(c(O)c1C2=O)C[C@@](O)(C(=O)CO)C[C@@H]3O[C@H]1C[C@H](N)[C@H](O)[C@H](C)O1` [soluble Dox, Doxorubicin]: the “survival of DCs” value with bone-marrow-derived DCs is reported as 19%. Moreover, the “survival of A20” value in the data set with A20 cells [1] (24 h, 1.125 μg/mL Dox, FIG. 8B comparison with DCs) is listed as 26%. The same compound came in with a viability at 0.5625 µg/mL in the data set with A20 cells [1] (Mus musculus, A20, Day 1 (24 h), 0.5625 μg/mL Dox, FIG. 8A) of 87%. For the same compound, the viability at 1.125 µg/mL in the data set with A20 cells [1] (Mus musculus, A20, Day 1 (24 h), 1.125 μg/mL Dox, FIG. 8A) turned out to be 46%; with A20 cells [1] (Mus musculus, A20, Day 2 (48 h), 1.125 μg/mL Dox), 5%. The “phagocytosis of A20 tumor cells by DCs” value in data set [2] is recorded as “enhanced phagocytosis of A20 cells”. Besides, the viability at 4.5 µg/mL in the data set on A20 cells [3] (A20, 24 h, day 1) was determined as 26%; in the data set on A20 cells [3] (A20, 48 h, day 2), 4%. Also, the peak plasma concentration in data set [4] is listed as 278 ng/mL.

The record behind these values is patent US10314854B2, “Methods for treating tumors in situ including intratumor injection of cytotoxic particles and immune checkpoint blockade therapy” (University of Iowa Research Foundation, priority 2015, dated 2019).
